Experimental data from ChEMBL document CHEMBL5724558, “Image-based profiling of drug vulnerabilities in CRC organoids” (2024).
“And” between values parts separate entries of the source, which are not always exact repeats. Identical values can stand only once.

Key:
Type in all cases: functional, Homo sapiens
Set-up in all cases: dose or concentration left out as unconfirmed
Colon cancer organoid [1] = assay: (§1) Image-based profiling of donated chemical probes and chemogenomic kinase set in O21 CRC organoid. Image analysis is performed on the sum area metric, and the data were normalized to the DMSO control. After imaging the organoid viability is measured using the OneGloEX Luciferase Assay System. The normalized viability data and sum area are reported.
Colon cancer organoid [2] = assay: as §1, with “O06” for “O21”
Colon cancer organoid [3] = assay: as §1, with “O09” for “O21”

SMILES	Cell Viability (Colon cancer organoid [1]; Replication number 1)	Cell Viability (Colon cancer organoid [1]; Replication number 2)	Cell Viability (Colon cancer organoid [2]; Replication number 1)	Cell Viability (Colon cancer organoid [2]; Replication number 2)	Cell Viability (Colon cancer organoid [3]; Replication number 1)	Cell Viability (Colon cancer organoid [3]; Replication number 2)
CC(C)Oc1ccc(-c2c[nH]cc2CN(C)CCO)cc1	96.8467% and 122.861%	101.748% and 92.8998%	142.087% and 115.973%	131.014% and 107.302%	133.832% and 103.4%	212.72% and 118.594%
Nc1nc(NCc2ccccc2)nc(-c2ccccc2CO)n1 [Ogerin]	116.019% and 92.2153%	95.1453% and 93.8137%	105.073% and 119.514%	91.1794% and 124.7%	84.1314% and 95.0982%	82.0321% and 100.912%
COc1cc(C(=O)N2CC[C@@H](O)[C@@H](N)C2)cc2nc(-c3cc4ccccc4n3CC3CC3)n(C)c12.Cl	95.6097% and 101.11%	84.8651% and 86.9928%	141.855% and 120.564%	139.679% and 135.263%	108.535% and 117.543%	77.7437% and 99.4932%
c1ccc(C2CCN(c3cnc4c(N5CCOCC5)nccn34)CC2)cc1	115.301% and 98.0422%	102.772% and 73.1066%	145.966% and 120.992%	117.4% and 104.103%	180.042% and 107.897%	162.986% and 102.452%
CNc1nc(Nc2cnn([C@H]3CCN(C4COC4)C[C@@H]3F)c2Cl)ncc1C(F)(F)F	107.524% and 121.533%	104.61% and 94.4225%	126.64% and 127.973%	90.3478% and 106.324%	95.686% and 93.751%	102.903% and 81.5252%
CCc1cc(Nc2nccc(-c3c(-c4ccc(OC)c(C(=O)Nc5c(F)cccc5F)c4)nc4ccccn34)n2)c(OC)cc1N1CCC(N2CCN(S(C)(=O)=O)CC2)CC1	80.3348% and 98.676%	124.058% and 123.21%	105.005% and 109.946%	148.394% and 109.614%	134.446% and 100.483%	134.446% and 126.607%
COc1ncc(F)cc1CNc1ccc(Cc2c[nH]c3ncc(C)cc23)c(F)n1 [PLX-5622]	106.139% and 77.4913%	117.508% and 96.7254%	113.45% and 123.522%	100.072% and 108.792%	193.371% and 111.454%	159.434% and 112.03%
Cc1noc(C)c1-c1cnc2c(-c3ccc(C(=O)O)cc3)cn([C@@H](C)c3ccccn3)c2c1 [PLX-51107]	101.544% and 130.503%	74.8766% and 126.73%	28.5018% and 57.9866%	31.105% and 59.0281%	42.9449% and 37.558%	38.2971% and 35.6351%
Cc1nnc2c3ccccc3c(N[C@@H](C)[C@H](c3ccccc3)N(C)C)nn12	132.945% and 134.618%	79.559% and 84.8449%	129.952% and 136.027%	163.32% and 118.295%	148.648% and 110.587%	133.595% and 98.3529%
CC(=O)Nc1cccc(-n2c(=O)n(C3CC3)c(=O)c3c(Nc4ccc(I)cc4F)n(C)c(=O)c(C)c32)c1 [TRAMETINIB]	17.3032% and 24.3122%	17.3841% and 17.3982%	5.765% and 5.759%	5.411% and 4.125%	7.185% and 14.6007%	7.6439% and 10.8886%
CCC(=O)N[C@H]1CC[C@@H](C(=O)N(C)c2ccc(-c3nc4ccccc4o3)cc2)C1 [BI 99179]	140.434% and 105.951%	114.409% and 97.9592%	21.7258% and 60.1874%	30.1767% and 66.0942%	70.0522% and 46.8277%	52.7511% and 35.3414%
CN(C)[C@@H]1CCN(c2cc(-c3ccccc3)nc3ccnn23)C1 [(R)-ZINC-3573]	105.256% and 112.95%	102.245% and 84.1264%	99.7285% and 119.514%	116.173% and 112.206%	69.8572% and 93.5976%	61.7883% and 100.515%
C[C@@H](c1cccc(CN)c1)n1cc(Cl)cc(C(N)=O)c1=N.Cl	113.852% and 117.315%	85.2053% and 83.6166%	106.874% and 116.842%	95.2274% and 108.361%	102.95% and 110.479%	109.454% and 89.4132%
CC(C)C(=O)Nc1n[nH]c2cc(-c3cccc(NS(=O)(=O)C4CC4)c3)ccc12	108.143% and 100.309%	99.3973% and 100.309%	98.7656% and 120.438%	86.9624% and 76.1389%	171.396% and 120.765%	122.795% and 96.2655%
c1ccc2oc(-c3csc(C4CCN(Cc5nc6ncccc6[nH]5)CC4)n3)cc2c1	94.2166% and 105.311%	87.22% and 87.1856%	71.3349% and 100.567%	106.728% and 127.102%	82.621% and 84.4067%	113.991% and 112.807%
Cc1noc([C@H]2C[C@@H](c3ccc(C(F)(F)F)cc3)CN(C(=O)N3CCS(=O)(=O)C3)C2)n1 [BAY-448]	88.3285% and 80.3363%	88.286% and 95.9184%	117.281% and 106.792%	86.8627% and 94.2849%	144.748% and 117.786%	135.729% and 111.574%
CCc1ccccc1C(=O)Nc1n[nH]c2c(C)c(F)c(C3C(C#N)=C(C)N(C)C(C)=C3C#N)cc12 [BAY-3827]	104.538% and 100.129%	99.5085% and 100.51%	111.052% and 125.293%	118.254% and 98.7859%	62.8379% and 77.8869%	39.4727% and 62.2125%
COc1ccc(Cn2ccc3ccc(C(=O)NO)cc32)cc1	103% and 112.867%	100.715% and 96.6587%	150.267% and 98.5772%	160.829% and 118.056%	110.805% and 94.5904%	117.665% and 84.3839%
Cc1cccc(-c2cnc3occ(-c4ccc(C(=O)O)c(C5CCCC5)c4)c3c2)c1	122.241% and 115.611%	124.793% and 91.2416%	91.6718% and 109.086%	100.62% and 106.871%	143.367% and 90.8211%	122.111% and 97.0079%
CN(C(=O)c1cnn2cccnc12)c1cc2c(cc1N1CCOCC1)C(=O)N(C[C@@H](F)C(C)(C)O)C2	91.4071% and 91.6697%	87.4763% and 99.932%	66.1312% and 81.8624%	88.8257% and 96.1076%	67.6561% and 89.4711%	97.2316% and 93.7748%
CC1=C(C(=O)Nc2cc3cn[nH]c3cc2F)C(c2ccc(C(F)(F)F)cc2)CC(=O)N1 (configuration not stated)	120.369% and 99.2335%	116.368% and 107.089%	108.292% and 112.394%	105.064% and 92.1337%	137.27% and 97.7404%	200.569% and 118.509%
Cn1c(C2(NC(=O)c3ccc(NCC4CCCCC4)nc3)CCC2)nc2ccc(/C=C/C(=O)O)cc21 [BI 7656]	95.8092% and 94.6419%	106.526% and 92.3751%	99.3838% and 109.64%	121.504% and 124.591%	151.482% and 117.548%	136.087% and 97.2553%
CCN(Cc1ccc(Cl)cc1)c1ncc(C(=O)NCCCN2CCCC2=O)c(NC2CCCC2)n1	106.065% and 92.3751%	124.526% and 113.344%	89.2777% and 109.917%	114.236% and 99.6728%	161.079% and 96.7604%	165.307% and 110.619%
N#CC1(c2ccccn2)CCN(Cc2cc(C(=O)N3CCCC3)c(=O)n3ccccc23)CC1 [MSD-M1PAM-NC]	100.616% and 90.5784%	99.0735% and 86.6757%	114.688% and 98.8664%	108.691% and 97.5493%	69.2847% and 91.5343%	101.66% and 96.3521%
Cc1ccc2nc(CNCCCOc3ccccc3)cc(O)c2c1 [UCSF924]	109.248% and 108.585%	100.134% and 96.363%	116.607% and 123.644%	89.7333% and 84.3345%	89.1468% and 105.602%	80.3683% and 95.5591%
Cc1ccc(NC(=O)Nc2cc(C(F)(F)F)ccc2F)cc1Nc1ccc2c(c1)NC(=O)/C2=C\c1ccc[nH]1	103.098% and 128.078%	94.098% and 129.212%	171.109% and 157.262%	144.83% and 120.438%	128.92% and 93.5433%	146.444% and 106.907%
O=C(NNS(=O)(=O)c1ccccc1F)c1cc(F)cc(-c2ccccn2)c1 [WM-1119]	82.8466% and 99.3088%	81.4128% and 90.2447%	59.5797% and 94.7368%	61.7919% and 84.5747%	133.421% and 96.9739%	39.4001% and 91.3957%
